From US20220267373A1, “SELF-ASSEMBLING PEPTIDES AND HYDROGELS” (UNIVERSITY OF VIRGINIA PATENT FOUNDATION, priority 2018, published 2022)
Like-named read-outs stand apart in the source and are kept apart here. Where no end group is shown, it is not given here.

What was measured:
[1] = test system: MADM OPC line; assay: Hydrogel cell encapsulation and 3D culture (ATP, DNA, live/dead, immunostaining); format: cell-based
Procedure: OPCs were cultured in DMEM with high glucose, 4 mM L-glutamine, 1 mM sodium pyruvate (Life Technologies) with N2 and B27 supplement (Life Technologies), 1% penicillin-streptomycin (Life Technologies), 10 ng/mL mouse PDGFA-AA (eBioscience), and 50 ng/mL human NT3 (Peprotech). Cell media was changed every 2 days, and cells were grown to 90% confluency and passaged using 0.25% trypsin in Dulbecco's phosphate buffered saline (PBS). Cells were cultured in 5% CO2 atmosphere, and 21% O2 at 37° C.
Hydrogels for cell encapsulation were made using 1.5 wt % AYFIL peptide in PBS. 25 μL hydrogels with 5×10^6 cells/mL were made by mixing cells and peptides and then transferred to a cell incubator for 10 minutes at 37° C. at 100% humidity. OPC proliferation media was then added to the hydrogels, and changed every 2 days. Hydrogels were stored at −80° C. in lysis buffer before running ATP or DNA quantification assays. For quantification, gels were homogenized in lysis buffer using a hand grinder and were measured using the CellTiter-Glo luminescent Cell Viability Assay (Promega, United States) and the QuantiT PicoGreen dsDNA assay (ThermoFisher) according to manufacturer protocols.
After 2 days of culture, gels were fixed in 4% paraformaldehyde for 20 minutes at 4° C. and rinsed with PBS before permeabilizing overnight with 0.3% triton-X in PBS. Hydrogels were rinsed in PBS, and then incubated with 10 μg/mL stock solution of Alexa Fluor 568 Phalloidin (ThermoFisher) in 1% BSA in PBS overnight. 4′,6-diamidino-2-phenylindole (DAPI) was added to stain cell nuclei during the last 20 minutes of incubation. Gels were then washed 4×20 min in PBS and imaged with a Zeiss LSM 780 confocal microscope. 100 μm z-stack images were collected with a z-spacing distance of 1 μm.

[2] = Electron microscopy (TEM, cryo-EM) of nanofiber morphology; format: physicochemical; conditions: for typical fiber / ribbon diameter: 1.5 wt % hydrogels at pH 7.4; for nanostructure morphology (TEM): 1.5 wt % in PBS at pH 7.4
Procedure: 3.5 μL of peptide hydrogel was placed on a holey carbon grid (Protochips, Inc.). Three washes of deionized water, and three washes of 2% uranyl acetate staining solutions with 2 s blotting between each step was performed. Samples were analyzed on a Tecnai F20 equipped with a 4 k×4 k UltraScan CCD camera. Pitch and length were determined using Fiji (Schindelin, J. et al., Fiji: an open-source platform for biological-image analysis. Nat Methods 2012, 9 (7), 676-682, herein incorporated by reference in its entirety) and the FiberApp software package (Usov, I.; Mezzenga, R., FiberApp: An Open-Source Software for Tracking and Analyzing Polymers, Filaments, Biomacromolecules, and Fibrous Objects. Macromolecules 2015, 48 (5), 1269-1280, herein incorporated by reference in its entirety) was used to compute autocorrelation functions of intensity profiles.

[3] = Hydrogel formation (gelation) of peptides dissolved in PBS with pH adjustment; format: physicochemical; conditions: for hydrogel formation: dissolved in PBS at pH 7.4 and 1.5 wt %; for gelation as the pH was raised: pH raised from low pH
Procedure: (§1) Lyophilized peptides were dissolved in PBS to a final concentration of 1.5 or 3 wt. %. The pH of the peptide solutions was adjusted by drop-wise addition of minute amounts of HCl or NaOH. Rheological tests were performed on 50 μL hydrogels 30 minutes after induction of gelation (Anton Par, P25S 25 mm parallel steel plates) with a measuring gap of 250 μm. Storage (G′) and loss (G″) moduli were measured as a function of strain (%) ranging from 0.01 to 100% with a constant frequency of 10 rad/s. Frequency sweeps were performed at angular frequencies ranging from 1 to 100 rad/s at 0.1% strain. For recovery experiments, a step-time procedure was utilized with a series of applied strains at a fixed oscillation frequency of 10 rad/s. Initially, samples were applied with 0.01% strain for 100 s followed immediately by a 100% strain for 50 s, and cycled 5 times.
The secondary structural content of pentapeptide specimens was probed by ATR-FTIR spectroscopy. Samples of the pentapeptides of interest were generated via solid-phase peptide synthesis methods. An alanine (Ala) scan of KYFIL was used to assess each AA's contribution to gelation, wherein individual amino acids (AAs) were sequentially exchanged with Ala or Val. Ala and Val were the substituted residues of choice, as they either eliminate a side-chain beyond the Cβ atom (Ala) or otherwise would be expected to minimally alter the main-chain conformation (Val). As uncharged and relatively compact residues, Ala and Val would not be expected to introduce (confounding) electrostatic or steric effects. All pentapeptides were dissolved in phosphate-buffered saline (PBS) at a concentration of 1.5% or 3% (weight/volume) and adjusted to a pH of 7.4. Gelling peptides (solid lines, FIG. 2) display a strong amide I absorbance at ≈1629 cm^−1, arising from vibrational modes of the amide group; these vibrations, in the region of 1700→1600 cm^−1, correspond to stretching of the C═O and C—N bonds, as well as bending of the N—H. This region of the IR spectrum is particularly sensitive to variations in secondary structural conformation and, in the case of our pentapeptide samples, is indicative of β-sheet hydrogen bonding (FIG. 2, FIG. 12, and FIGS. 13A-B). […] This can be inferred because the amide I region of parallel β-sheets harbors a single predominant signature (near 1630 cm^−1), while antiparallel sheets generally feature a second (minor) peak near ≈1680-1690 cm^−1. […] By correlating our IR observations with variations in AA sequence, it appears that amphiphilicity and a capacity for π-system interactions (e.g., π . . . π stacking and π . . . cation interactions with the benzyl side-chain of the central Phe) play a key role in self-assembly and hydrogel formation (FIG. 2).

[4] = Rheology: storage modulus (G') from strain sweeps of peptide hydrogels; format: physicochemical; conditions: pH 7.4
Procedure: as §1

[5] = pH-responsive solubility of nongelling sequences; format: physicochemical
[6] = Step-strain recovery / thixotropy test of hydrogel; format: physicochemical
Procedure: as §1, with “Initially, samples were applied with 0.01% strain for 100 s followed immediately by a 100% strain for 50 s, and cycled 5 times.” left out

[7] = Apparent viscosity versus shear rate (shear-thinning); format: physicochemical
[8] = 1.5 wt. % hydrogel, thixotropy test, 200% strain (200 s), 400 s recovery, FIG. 21 legend

Substance | typical fiber / ribbon diameter [2] | nanostructure morphology (TEM) [2] | hydrogel formation [3] | storage modulus (G') ([4]; 1.5 wt % hydrogel) [Pa] | storage modulus (G') ([4]; 3 wt % hydrogel) [Pa] | solubility at low pH [5] | behavior as the pH was raised [5] | gelation as the pH was raised [3] | also measured
AYFIL-NH2 [AYFIL] | ≈ 10 nm | twisted fibrils | form hydrogels | ~1900 |  |  |  |  | viability and growth of OPCs encapsulated in hydrogel [1]: survived and grew; OPC proliferation (increase in DNA concentration) ([1]; 1.5 wt % hydrogel, 4 days): cells proliferate over the course of 4 days; live/dead staining of encapsulated OPCs ([1]; 1.5 wt % hydrogel, day 1): majority of cells remained viable; time OPCs remained viable after encapsulation (ATP increase) ([1]; 96 h): at least 4 days; time of culture to OPC process extension ([1]; without adhesion peptide sequences or native ECM proteins): ≤ 2 days
KAFIL (KAFIL-NH2) [pentapeptide, C-terminally amidated, gels at pH>10] |  | spherical aggregates |  |  | 200 |  |  |  | gelation at high pH ([3]; pH>10): can gel
KYAIL-NH2 [KYAIL] |  |  |  |  |  | soluble | precipitated as an off-white powder | never gelled | 
KYFAL (KYFAL-NH2) [self-assembling pentapeptide, C-terminally amidated] | ≈ 10 nm | twisted ribbon morphologies, with longer and more infrequent pitch than KYFIL peptides | form hydrogels |  | 133 |  |  |  | 
KYFIA-NH2 [KYFIA] |  |  |  |  |  | soluble | precipitated as an off-white powder | never gelled | 
KYFIL-CO2H |  |  |  |  |  |  |  |  | hydrogel formation of carboxyl-terminated variant ([3]; pH 7.4): did not readily form hydrogels
KYFIL-NH2 [KYFIL] | ≈ 40 nm | twisted ribbon morphologies | form hydrogels | 8000 | 17000 |  |  |  | viability and growth of OPCs encapsulated in hydrogel ([1]; 1.5 wt % hydrogel, ATP and DNA concentrations over time): poor cell viability; twisted ribbon pitch ([2]; 1.5 wt % hydrogel, pH 7.4, EM): ca. 132 nm; twisted ribbon width ([2]; 1.5 wt % hydrogel, pH 7.4, EM): ca. 40 nm; nanostructure morphology (EM) in nongelling conditions ([2]; 1.5 wt %, pH 4.6): amorphous peptide aggregates; periodicity of the fibrillar twist ([2]; visual analysis and autocorrelation function of pixel intensity, TEM): ~120 nm; time to recover 90% of initial G' [6, 8]: 3.5 min; time to recover 96% of initial G' [6, 8]: 7 min; time to recover gel behavior (G'>G'') ([6]; following 100% strain): ≤ 14 s; time to recover 90% of initial G' ([6]; results text (FIG. 21)): 3.4 min; time to recover 96% of initial G' ([6]; results text (FIG. 21)): 7 min
KYFIV-NH2 [KYFIV] |  |  |  |  |  | soluble | precipitated as an off-white powder | never gelled | 
RGDKYFIL (RGDKYFIL-NH2) [8-mer peptide containing KYFIL] |  |  |  | ~100 | ~1000 |  |  |  | shear-thinning behavior (apparent viscosity versus shear rate) [7]: displays shear-thinning behavior
